Measurements from US10918645B2 (LIFEARC, priority 2016, dated 2021).

Assays:
Assay type in all cases: biochemical
Details in all cases: 1 μM inhibitor concentration
[1] = molecular target: PRK2 (Homo sapiens (Human), UniProt Q16513); assay: PRK2 kinase selectivity assay
Protocol: 5-20 mU of PRK2 (diluted in 50 mM Tris (pH 7.5), 0.1 mM EGTA, 1 mg/ml BSA, 0.1%, b-Mercaptoethanol) is assayed against Long S6 peptide ([…]) in a final volume of 25.5 μl containing 50 mM Tris (pH 7.5), 0.1 mM EGTA, 0.1%, b-Mercaptoethanol, 30 μM Long S6 peptide, 10 mM magnesium acetate and 0.005 mM [33P-g-ATP](500-1000 cpm/pmole) and incubated for 30 mins at room temperature. Assays are stopped by addition of 5 μl of 0.5M (3%) orthophosphoric acid. Assays are harvested onto P81 Unifilter plates using a wash buffer of 50 mM orthophosphoric acid.

[2] = molecular target: FGF-R1 (Homo sapiens (Human), UniProt P11362); assay: FGF-R1 kinase selectivity assay
FGF-R1, sequence (P11362 22-822, species assumed): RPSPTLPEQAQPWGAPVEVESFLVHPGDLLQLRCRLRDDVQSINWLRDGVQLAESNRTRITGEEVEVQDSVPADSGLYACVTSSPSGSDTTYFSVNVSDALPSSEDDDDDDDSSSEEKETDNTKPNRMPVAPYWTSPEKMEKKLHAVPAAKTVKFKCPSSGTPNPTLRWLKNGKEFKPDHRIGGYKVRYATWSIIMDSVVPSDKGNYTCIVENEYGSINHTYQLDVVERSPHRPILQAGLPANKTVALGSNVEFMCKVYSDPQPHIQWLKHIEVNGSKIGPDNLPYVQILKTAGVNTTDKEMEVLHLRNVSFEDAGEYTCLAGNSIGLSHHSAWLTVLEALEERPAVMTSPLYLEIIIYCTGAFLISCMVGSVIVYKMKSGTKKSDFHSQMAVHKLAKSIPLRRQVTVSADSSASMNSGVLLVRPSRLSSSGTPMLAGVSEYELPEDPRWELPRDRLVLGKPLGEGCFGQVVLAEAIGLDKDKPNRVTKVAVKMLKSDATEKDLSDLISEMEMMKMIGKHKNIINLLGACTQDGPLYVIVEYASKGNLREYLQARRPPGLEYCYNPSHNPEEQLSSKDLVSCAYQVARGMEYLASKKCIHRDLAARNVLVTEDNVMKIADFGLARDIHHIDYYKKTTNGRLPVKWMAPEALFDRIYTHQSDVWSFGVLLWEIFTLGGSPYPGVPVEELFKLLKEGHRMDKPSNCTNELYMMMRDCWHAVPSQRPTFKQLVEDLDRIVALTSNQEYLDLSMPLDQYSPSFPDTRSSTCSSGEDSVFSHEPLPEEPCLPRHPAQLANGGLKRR
Protocol: FGF-R1 (5-20 mU diluted in 50 mM Tris pH 7.5, 0.1 mM EGTA, 1 mg/ml BSA) is assayed against a substrate peptide (Poly Glut Tyr) in a final volume of 25.5 μl containing 50 mM Tris pH 7.5, 1 mg/ml substrate peptide, 10 mM magnesium acetate and 0.02 mM [33P-g-ATP] (50-1000 cpm/pmole) and incubated for 30 min at room temperature. Assays are stopped by addition of 5 μl of 0.5 M (3%) orthophosphoric acid and then harvested onto P81 Unifilter plates with a wash buffer of 50 mM orthophosphoric acid.

[3] = molecular target: PKCa (Homo sapiens (Human), UniProt P17252); assay: PKCa kinase selectivity assay
Protocol: PKCa (5-20 mU diluted in 20 mM Hepes pH 7.4, 0.03% Triton X-100) is assayed against Histone H1 in the presence of PtdSerine and DAG (0.1 mg/ml. and 10 μg/ml) and 0.1 mM CaCl2. The assay is carried out in a final volume of 25.5 μl containing 20 mM Hepes pH 7.4, 0.03% Triton X-100, 0.1 mg/ml Histone H1, 10 mM magnesium acetate and 0.02 mM[33P-g-ATP] (50-1000 cpm/pmole) and incubated for 30 min at room temperature. Assays are stopped by addition of 5 μl of 0.5 M (3%) orthophosphoric acid and then harvested onto P81 Unifilter plates with a wash buffer of 50 mM orthophosphoric acid.
PtdSer/DAG preparation:—PtdSer stock=10 mg/ml in MeOH/Chloroform (1:2). Dry down required amount. Resuspend in appropriate volume of 10 mM Hepes pH 7.4. Vortex and briefly sonicate. (2×10-15 seconds at 10-15 seconds apart). DAG stock=10 mg/ml in MeOH/chloroform (1:2). Dry down required amount. Add sonicated PtdSer solution. Vortex and sonicate.

[4] = molecular target: PKBb (Homo sapiens (Human), UniProt P31751, S474D); assay: PKBb kinase selectivity assay
PKBb, sequence (P31751 120-481 S474D): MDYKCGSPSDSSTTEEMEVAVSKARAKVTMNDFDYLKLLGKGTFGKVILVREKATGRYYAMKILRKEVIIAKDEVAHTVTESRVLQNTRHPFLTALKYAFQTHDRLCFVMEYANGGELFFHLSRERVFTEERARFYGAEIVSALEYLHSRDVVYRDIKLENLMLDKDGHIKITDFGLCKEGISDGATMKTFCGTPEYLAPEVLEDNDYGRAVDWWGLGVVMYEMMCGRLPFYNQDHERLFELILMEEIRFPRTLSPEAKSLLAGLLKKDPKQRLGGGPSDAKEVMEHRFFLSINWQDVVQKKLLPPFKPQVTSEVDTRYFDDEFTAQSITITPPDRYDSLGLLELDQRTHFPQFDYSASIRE
Protocol: ΔPH-PKBbeta-S474D (5-20 mU diluted in 50 mM Tris pH 7.5, 0.1 mM EGTA, 0.1% b-mercaptoethanol, 1 mg/ml BSA) is assayed against a modified Crosstide peptide ([…]) in a final volume of 25.5 μl containing 50 mM Tris pH 7.5, 0.05% b-mercaptoethanol, 30 μM substrate peptide, 10 mM magnesium acetate and 0.05 mM [33P-g-ATP](50-1000 cpm/pmole) and incubated for 30 min at room temperature. Assays are stopped by addition of 5 μl of 0.5 M (3%) orthophosphoric acid and then harvested onto P81 Unifilter plates with a wash buffer of 50 mM orthophosphoric acid.

[5] = molecular target: MINK1 (Homo sapiens (Human), UniProt Q8N4C8); assay: MINK1 kinase selectivity assay
Protocol: MINK1 (5-20 mU diluted in 50 mM Tris pH 7.5, 0.1 mM EGTA, 0.1% β-mercaptoethanol, 1 mg/ml BSA) is assayed against MBP in a final volume of 25.5 μl containing 50 mM Tris pH 7.5, 0.1 mM EGTA, 0.33 mg/ml MBP, 10 mM magnesium acetate and 0.05 mM [33P-γ-ATP] (50-1000 cpm/pmole) and incubated for 30 min at room temperature. Assays are stopped by addition of 5 μl of 0.5 M (3%) orthophosphoric acid and then harvested onto P81 Unifilter plates with a wash buffer of 50 mM orthophosphoric acid.

[6] = molecular target: IKKe (Homo sapiens (Human), UniProt Q14164); assay: IKKe kinase selectivity assay
IKKe, sequence (Q14164 whole entry, species assumed): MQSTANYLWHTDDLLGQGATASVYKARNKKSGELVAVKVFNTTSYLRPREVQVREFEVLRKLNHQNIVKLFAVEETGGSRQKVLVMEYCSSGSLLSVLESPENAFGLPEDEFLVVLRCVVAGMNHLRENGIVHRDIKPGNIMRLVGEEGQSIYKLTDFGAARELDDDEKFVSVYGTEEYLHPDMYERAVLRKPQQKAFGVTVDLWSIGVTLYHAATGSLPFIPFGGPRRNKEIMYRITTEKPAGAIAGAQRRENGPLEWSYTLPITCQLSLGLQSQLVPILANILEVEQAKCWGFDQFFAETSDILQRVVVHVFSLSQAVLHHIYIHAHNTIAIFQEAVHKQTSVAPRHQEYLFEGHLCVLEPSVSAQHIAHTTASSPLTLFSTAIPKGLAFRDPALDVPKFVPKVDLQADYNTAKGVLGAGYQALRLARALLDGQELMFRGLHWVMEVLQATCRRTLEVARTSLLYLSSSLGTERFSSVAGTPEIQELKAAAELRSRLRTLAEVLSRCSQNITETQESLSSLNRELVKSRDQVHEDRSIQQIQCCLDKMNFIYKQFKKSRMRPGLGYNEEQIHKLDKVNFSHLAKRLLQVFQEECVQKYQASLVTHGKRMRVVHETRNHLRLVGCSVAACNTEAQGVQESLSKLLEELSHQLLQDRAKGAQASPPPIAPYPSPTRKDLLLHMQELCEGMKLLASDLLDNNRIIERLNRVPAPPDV
Protocol: 5-20 mU of IKKepsilon (DU14231)(diluted in 50 mM Tris (pH 7.5), 0.1 mM EGTA, 1 mg/ml BSA) is assayed against MBP in a final volume of 25.5 μl containing 50 mM Tris (pH 7.5), 0.1 mM EGTA, 0.33 mg/ml MBP, 10 mM magnesium acetate and 0.05 mM [33P-g-ATP](500-1000 cpm/pmole) and incubated for 30 mins at room temperature. Assays are stopped by addition of 5 μl of 0.5M (3%) orthophosphoric acid. Assays are harvested onto P81 Unifilter plates using a wash buffer of 50 mM orthophosphoric acid.

[7] = molecular target: NEK6 (Homo sapiens (Human), UniProt Q9HC98); assay: NEK6 kinase selectivity assay
NEK6, sequence (Q9HC98 whole entry, species assumed): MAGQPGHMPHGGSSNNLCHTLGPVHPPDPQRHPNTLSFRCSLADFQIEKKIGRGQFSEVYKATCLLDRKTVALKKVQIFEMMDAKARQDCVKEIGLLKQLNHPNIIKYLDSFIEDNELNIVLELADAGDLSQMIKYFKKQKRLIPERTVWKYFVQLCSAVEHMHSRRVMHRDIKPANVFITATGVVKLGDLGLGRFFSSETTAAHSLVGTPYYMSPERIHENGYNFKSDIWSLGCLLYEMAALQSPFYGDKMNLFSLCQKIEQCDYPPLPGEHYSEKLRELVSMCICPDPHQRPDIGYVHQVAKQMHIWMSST
Protocol: NEK6 (5-20 mU diluted in 50 mM Tris (pH 7.5), 0.1 mM EGTA, 1 mg/ml BSA, 0.1%, b-Mercaptoethanol) is assayed against NEK6 peptide ([…]) in a final volume of 25.5 μl containing 50 mM Tris (pH 7.5), 0.1 mM EGTA, 0.01% Brij, 0.1%, b-Mercaptoethanol, NEK6 peptide (0.3 mM), 10 mM magnesium acetate and 0.05 mM [33P-g-ATP](500-1000 cpm/pmole) and incubated for 30 min at room temperature. Assays are stopped by addition of 5 μl of 0.5 M (3%) orthophosphoric acid and then harvested onto P81 Unifilter plates with a wash buffer of 50 mM orthophosphoric acid.

[8] = molecular target: NUAK1 (Homo sapiens (Human), UniProt O60285); assay: NUAK1 kinase selectivity assay
NUAK1, sequence (O60285 whole entry, species assumed): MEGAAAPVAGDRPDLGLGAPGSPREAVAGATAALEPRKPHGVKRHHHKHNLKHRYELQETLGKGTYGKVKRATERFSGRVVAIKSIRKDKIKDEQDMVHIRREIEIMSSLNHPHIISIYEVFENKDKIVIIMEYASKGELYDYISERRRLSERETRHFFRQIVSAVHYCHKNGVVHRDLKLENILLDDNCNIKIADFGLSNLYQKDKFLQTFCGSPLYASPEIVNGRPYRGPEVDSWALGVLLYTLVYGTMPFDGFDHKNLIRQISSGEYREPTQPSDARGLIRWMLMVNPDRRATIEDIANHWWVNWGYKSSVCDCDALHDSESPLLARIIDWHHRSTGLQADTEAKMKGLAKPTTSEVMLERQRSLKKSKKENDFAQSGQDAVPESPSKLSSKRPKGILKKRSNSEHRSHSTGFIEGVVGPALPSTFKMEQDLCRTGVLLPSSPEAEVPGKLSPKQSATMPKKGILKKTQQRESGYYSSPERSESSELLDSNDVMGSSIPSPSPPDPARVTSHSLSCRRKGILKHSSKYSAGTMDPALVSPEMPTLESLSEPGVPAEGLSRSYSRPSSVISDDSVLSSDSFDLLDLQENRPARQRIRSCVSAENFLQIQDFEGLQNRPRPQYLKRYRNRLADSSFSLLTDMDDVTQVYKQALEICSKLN
Protocol: NUAK1 (5-20 mU diluted in 50 mM Tris pH 7.5, 0.1 mM EGTA, 0.1% 0-mercaptoethanol, 1 mg/ml BSA) is assayed against […] in a final volume of 25.5 μl containing 50 mM Tris pH 7.5, 0.1 mM EGTA, 0.3 mM […], 10 mM magnesium acetate and 0.02 mM [33P-γ-ATP] (50-1000 cpm/pmole) and incubated for 30 min at room temperature. Assays are stopped by addition of 5 μl of 0.5 M (3%) orthophosphoric acid and then harvested onto P81 Unifilter plates with a wash buffer of 50 mM orthophosphoric acid.

PRK2, sequence (Q16513 whole entry, species assumed): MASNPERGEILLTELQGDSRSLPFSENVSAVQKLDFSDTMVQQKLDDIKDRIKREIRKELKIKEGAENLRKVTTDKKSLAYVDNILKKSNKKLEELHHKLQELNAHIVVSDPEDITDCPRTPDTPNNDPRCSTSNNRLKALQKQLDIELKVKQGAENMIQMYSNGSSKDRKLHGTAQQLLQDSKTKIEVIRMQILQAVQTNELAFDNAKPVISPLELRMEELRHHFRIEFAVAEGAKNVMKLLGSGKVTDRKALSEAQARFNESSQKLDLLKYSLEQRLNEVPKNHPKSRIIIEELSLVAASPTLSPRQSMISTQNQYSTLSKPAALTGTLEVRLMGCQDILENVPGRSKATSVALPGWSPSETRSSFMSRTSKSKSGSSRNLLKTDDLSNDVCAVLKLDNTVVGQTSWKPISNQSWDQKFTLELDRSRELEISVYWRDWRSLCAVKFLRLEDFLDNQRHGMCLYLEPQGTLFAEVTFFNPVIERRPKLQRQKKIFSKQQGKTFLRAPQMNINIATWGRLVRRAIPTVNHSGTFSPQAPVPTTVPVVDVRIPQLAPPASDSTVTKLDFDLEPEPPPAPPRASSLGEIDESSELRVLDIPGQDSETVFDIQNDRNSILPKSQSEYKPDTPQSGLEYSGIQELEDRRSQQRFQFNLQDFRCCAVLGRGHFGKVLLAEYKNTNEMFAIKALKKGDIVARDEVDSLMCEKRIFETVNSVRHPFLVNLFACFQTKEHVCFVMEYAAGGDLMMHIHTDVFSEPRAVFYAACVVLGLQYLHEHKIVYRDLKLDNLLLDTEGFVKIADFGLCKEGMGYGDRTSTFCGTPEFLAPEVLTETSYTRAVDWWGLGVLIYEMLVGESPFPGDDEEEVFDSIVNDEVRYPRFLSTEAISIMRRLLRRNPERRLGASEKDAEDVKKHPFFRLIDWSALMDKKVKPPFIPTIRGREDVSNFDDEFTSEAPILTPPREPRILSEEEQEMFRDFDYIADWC

In the case of `c1cc2[nH]nc3c2c(n1)N(C1CCC1)CCC3` [Example 22, 6-cyclobutyl-6,7,8,9-tetrahydro-2H-1,2,5,6-tetraazabenzo[cd]azulene], the “percentage inhibition of PRK2” value [1] is reported as 2 percentage, the “percentage inhibition of FGF-R1” value [2] is reported as 11 percentage and the “percentage inhibition of PKCa” value [3] is reported as 0 percentage. For the same molecule, the “percentage inhibition of PKBb” value [4] was 0 percentage, the “percentage inhibition of MINK1” value [5] was 0 percentage and the “percentage inhibition of IKKe” value [6] was 0 percentage. For the same molecule, the “percentage inhibition of NEK6” value [7] was 3 percentage and the “percentage inhibition of NUAK1” value [8] was 8 percentage.
`c1cc2[nH]nc3c2c(n1)N(C1CCCC1)CCC3` [Example 23, 6-cyclopentyl-6,7,8,9-tetrahydro-2H-1,2,5,6-tetraazabenzo[cd]azulene] was tested, and the “percentage inhibition of PRK2” value [1] was 0 percentage, the “percentage inhibition of FGF-R1” value [2] was 19 percentage and the “percentage inhibition of PKCa” value [3] was 0 percentage. The “percentage inhibition of PKBb” value [4] was 0 percentage, the “percentage inhibition of MINK1” value [5] was 0 percentage and the “percentage inhibition of IKKe” value [6] was 0 percentage. For the same molecule, the “percentage inhibition of NEK6” value [7] was 1 percentage and the “percentage inhibition of NUAK1” value [8] was 17 percentage.
For `c1cc2[nH]nc3c2c(n1)N(C1CCOCC1)CCC3` [Example 29, 6-(tetrahydro-2H-pyran-4-yl)-6,7,8,9-tetrahydro-2H-1,2,5,6-tetraazabenzo[cd]azulene], the “percentage inhibition of PRK2” value [1] was 0 percentage, the “percentage inhibition of FGF-R1” value [2] was 12 percentage and the “percentage inhibition of PKCa” value [3] was 11 percentage. For the same molecule, the “percentage inhibition of PKBb” value [4] was 0 percentage, the “percentage inhibition of MINK1” value [5] was 0 percentage and the “percentage inhibition of IKKe” value [6] was 9 percentage. For the same molecule, the “percentage inhibition of NEK6” value [7] was 1 percentage and the “percentage inhibition of NUAK1” value [8] was 7 percentage.
In the case of `CN1CCC(N2Cc3ccccc3-c3n[nH]c4ccnc2c34)CC1` [Example 55], the “percentage inhibition of PRK2” value [1] is reported as 0 percentage, the “percentage inhibition of FGF-R1” value [2] is reported as 9 percentage and the “percentage inhibition of PKCa” value [3] is reported as 0 percentage. For the same molecule, the “percentage inhibition of PKBb” value [4] was 10 percentage, the “percentage inhibition of MINK1” value [5] was 12 percentage and the “percentage inhibition of IKKe” value [6] was 5 percentage. For the same molecule, the “percentage inhibition of NEK6” value [7] was 0 percentage and the “percentage inhibition of NUAK1” value [8] was 76 percentage.
For `CC(C)n1ncc2c1CN(C1CCN(C)CC1)c1nccc3[nH]nc-2c13` [Example 68], the “percentage inhibition of PRK2” value [1] was 8 percentage, the “percentage inhibition of FGF-R1” value [2] was 35 percentage and the “percentage inhibition of PKCa” value [3] was 2 percentage. For the same molecule, the “percentage inhibition of PKBb” value [4] was 9 percentage, the “percentage inhibition of MINK1” value [5] was 7 percentage and the “percentage inhibition of IKKe” value [6] was 0 percentage. For the same molecule, the “percentage inhibition of NEK6” value [7] was 0 percentage and the “percentage inhibition of NUAK1” value [8] was 65 percentage.
